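Cells were grown in 96-well plates and exposed to each compound for 48 hours at five concentrations; endpoints were interpolated linearly between bracketing concentrations, or set to the highest concentration if not reached. GI50 is the concentration that inhibits growth by half.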 Active and inactive are the calls of the source. No stated cut-off is given here; in the data, active = GI50 up to about 1.1 µM and inactive = higher.
Key:
Assay in all cases: growth of human tumour cells (NCI), 48 h
A549 = tested on: A549
CCRF-CEM = tested on: CCRF-CEM
COLO 205 = tested on: COLO 205
HCC 2998 = tested on: HCC 2998
HL-60 = tested on: HL-60
HOP-62 = tested on: HOP-62
IGROV-1 = tested on: IGROV-1
K562 = tested on: K562
MOLT-4 = tested on: MOLT-4
NCI-H522 = tested on: NCI-H522
OVCAR-4 = tested on: OVCAR-4
SF-268 = tested on: SF-268
SF-295 = tested on: SF-295
SK-MEL-2 = tested on: SK-MEL-2
SK-MEL-5 = tested on: SK-MEL-5
SN12C = tested on: SN12C
UACC-257 = tested on: UACC-257
UO-31 = tested on: UO-31
UACC-62 = tested on: UACC-62

Compound	GI50 (A549)	GI50 (CCRF-CEM)	GI50 (COLO 205)	GI50 (HCC 2998)	GI50 (HL-60)	GI50 (HOP-62)	GI50 (IGROV-1)	GI50 (K562)	GI50 (MOLT-4)	GI50 (NCI-H522)	GI50 (OVCAR-4)	GI50 (SF-268)	GI50 (SF-295)	GI50 (SK-MEL-2)	GI50 (SK-MEL-5)	GI50 (SN12C)	GI50 (UACC-257)	GI50 (UO-31)	GI50 (UACC-62)
CCCCCCn1c(SCC)c2ccccc2c1-c1nc(F)nc(F)n1	> 100 µM (inactive)	36 µM (inactive)	> 100 µM (inactive)	> 100 µM (inactive)	> 100 µM (inactive)	> 100 µM (inactive)	> 100 µM (inactive)	> 100 µM (inactive)	> 100 µM (inactive)	> 100 µM (inactive)	> 100 µM (inactive)	> 100 µM (inactive)	> 100 µM (inactive)	> 100 µM (inactive)	> 100 µM (inactive)	> 100 µM (inactive)	> 100 µM (inactive)	> 100 µM (inactive)	
O=C1/C(=C/c2ccccc2)CN(C(=O)Oc2ccc([N+](=O)[O-])cc2)C/C1=C\c1ccccc1	> 10 µM (inactive)	1.38 µM (inactive)	7.83 µM (inactive)	2.74 µM (inactive)	1.04 µM (active)	> 10 µM (inactive)	6.84 µM (inactive)	0.859 µM (active)	0.649 µM (active)	3.18 µM (inactive)	2.56 µM (inactive)	5.09 µM (inactive)	1.33 µM (inactive)	14.2 µM (inactive)	3.64 µM (inactive)	2.79 µM (inactive)	5.18 µM (inactive)	9.77 µM (inactive)	2.41 µM (inactive)
CC(=O)CC1(OC(=O)C2C(C=C(C)C)C2(C)C)C(=O)Nc2ccccc21 (stereo unspecified)	> 100 µM (inactive)	55.3 µM (inactive)	> 100 µM (inactive)	> 100 µM (inactive)	> 100 µM (inactive)	> 100 µM (inactive)	> 100 µM (inactive)	77.3 µM (inactive)	> 100 µM (inactive)	64.6 µM (inactive)	84.9 µM (inactive)	> 100 µM (inactive)	> 100 µM (inactive)	> 100 µM (inactive)	> 100 µM (inactive)	> 100 µM (inactive)	> 100 µM (inactive)	> 100 µM (inactive)	> 100 µM (inactive)
C(=N\c1ccc(-c2nc3ccccc3s2)cc1)/c1cccs1	57.7 µM (inactive)	0.617 µM (active)	42.1 µM (inactive)	34 µM (inactive)	< 0.01 µM (active)	30.3 µM (inactive)	49.8 µM (inactive)	34.8 µM (inactive)	27 µM (inactive)	32.1 µM (inactive)	39.9 µM (inactive)	34.8 µM (inactive)	23.2 µM (inactive)	38.2 µM (inactive)	30.4 µM (inactive)	40.6 µM (inactive)	38.2 µM (inactive)	43.9 µM (inactive)	42 µM (inactive)
[O-]c1c2cc(-[n+]3c(-c4ccccc4)cc(-c4ccccc4)cc3-c3ccccc3)cc1COCCOCCOCCOCCOC2	60 µM (inactive)	43.6 µM (inactive)	18.7 µM (inactive)	41.7 µM (inactive)	31.8 µM (inactive)	37 µM (inactive)		34 µM (inactive)	32.1 µM (inactive)	35.6 µM (inactive)	59.4 µM (inactive)	29 µM (inactive)	43.8 µM (inactive)	21.7 µM (inactive)		38.8 µM (inactive)	24 µM (inactive)	85.3 µM (inactive)	19.5 µM (inactive)
COc1ccccc1NC(=O)C(CC(C(=O)Nc1ccccc1OC)/C(C)=N/NC(=O)c1ccccc1O)/C(C)=N/NC(=O)c1ccccc1O (stereo unspecified)	82.4 µM (inactive)	33 µM (inactive)	> 100 µM (inactive)	> 100 µM (inactive)	47.5 µM (inactive)	> 100 µM (inactive)	> 100 µM (inactive)	> 100 µM (inactive)	47.5 µM (inactive)	64.4 µM (inactive)	51.8 µM (inactive)	> 100 µM (inactive)	59.7 µM (inactive)	> 100 µM (inactive)	47 µM (inactive)	> 100 µM (inactive)	> 100 µM (inactive)	40.4 µM (inactive)	
Cc1cc(N(CCC#N)CCC#N)ccc1/C=C/C(=O)Nc1cccc(Cl)c1	> 100 µM (inactive)	85.7 µM (inactive)	> 100 µM (inactive)	> 100 µM (inactive)	51.3 µM (inactive)	> 100 µM (inactive)	> 100 µM (inactive)	32.3 µM (inactive)	> 100 µM (inactive)	62.7 µM (inactive)	58.6 µM (inactive)	> 100 µM (inactive)	> 100 µM (inactive)	> 100 µM (inactive)	> 100 µM (inactive)	> 100 µM (inactive)	> 100 µM (inactive)	27.6 µM (inactive)	46.9 µM (inactive)
C[N+](C)(CCNc1ccc(NCC[N+](C)(C)Cc2ccc([N+](=O)[O-])cc2)c2c1C(=O)c1c(O)ccc(O)c1C2=O)Cc1ccc([N+](=O)[O-])cc1	28.2 µM (inactive)	> 50 µM (inactive)	18.7 µM (inactive)	> 50 µM (inactive)	> 50 µM (inactive)	> 50 µM (inactive)	> 50 µM (inactive)	> 5 µM (inactive)	> 5 µM (inactive)	> 50 µM (inactive)	> 50 µM (inactive)	> 50 µM (inactive)	16.7 µM (inactive)	> 50 µM (inactive)	15 µM (inactive)	> 50 µM (inactive)	> 50 µM (inactive)	20.4 µM (inactive)	> 50 µM (inactive)
COC(=O)C(c1ccc(OC)cc1)N1C(=O)[C@@H](NC(=O)c2ccccc2)[C@H]1[C@@H](C)O (stereo partly specified)	> 100 µM (inactive)	> 100 µM (inactive)	> 100 µM (inactive)	> 100 µM (inactive)	> 100 µM (inactive)	> 100 µM (inactive)	> 100 µM (inactive)	> 100 µM (inactive)	> 100 µM (inactive)	> 100 µM (inactive)	> 100 µM (inactive)	> 100 µM (inactive)	> 100 µM (inactive)	> 100 µM (inactive)	> 100 µM (inactive)	> 100 µM (inactive)	> 100 µM (inactive)	> 100 µM (inactive)	> 100 µM (inactive)
O=c1[nH]c2cc([N+](=O)[O-])ccc2nc1/C(=N/Nc1ccccc1)C(O)c1ccccc1Cl (stereo unspecified)	41.9 µM (inactive)	33.5 µM (inactive)	39.7 µM (inactive)	22.3 µM (inactive)	> 100 µM (inactive)	62.5 µM (inactive)	43.9 µM (inactive)	42.5 µM (inactive)	> 100 µM (inactive)	4.68 µM (inactive)	79.8 µM (inactive)	> 100 µM (inactive)	43.3 µM (inactive)	> 100 µM (inactive)	33 µM (inactive)	> 100 µM (inactive)	> 100 µM (inactive)	21.1 µM (inactive)	11.2 µM (inactive)
CCCCCCCCCCCCCCCCP(=O)(OC)OC	17.7 µM (inactive)	22.3 µM (inactive)	17 µM (inactive)	15.4 µM (inactive)	11.6 µM (inactive)	12 µM (inactive)	16.7 µM (inactive)	22.5 µM (inactive)	16.5 µM (inactive)	13.5 µM (inactive)	20.7 µM (inactive)		18 µM (inactive)	16.4 µM (inactive)	16.4 µM (inactive)	17.2 µM (inactive)	17.5 µM (inactive)	11.7 µM (inactive)	14.6 µM (inactive)
CCOC(=O)CC1(N)CC2c3ccccc3OC(=O)C2C(=O)N1 (stereo unspecified)	> 100 µM (inactive)	> 100 µM (inactive)	> 100 µM (inactive)	> 100 µM (inactive)	> 100 µM (inactive)	> 100 µM (inactive)	> 100 µM (inactive)	> 100 µM (inactive)	> 100 µM (inactive)	> 100 µM (inactive)	> 100 µM (inactive)	> 100 µM (inactive)		> 100 µM (inactive)		> 100 µM (inactive)	> 100 µM (inactive)	> 100 µM (inactive)	> 100 µM (inactive)
CN(C)CCCN1N=Nc2cccc3cccc1c23	> 100 µM (inactive)	27.9 µM (inactive)	34.6 µM (inactive)	> 59 µM (inactive)	30.3 µM (inactive)	> 100 µM (inactive)	> 100 µM (inactive)	26.7 µM (inactive)	29 µM (inactive)	50.9 µM (inactive)	20.3 µM (inactive)	> 85.9 µM (inactive)	> 90.8 µM (inactive)	> 100 µM (inactive)	> 84.9 µM (inactive)	63.8 µM (inactive)	> 91.8 µM (inactive)	> 64.6 µM (inactive)	> 100 µM (inactive)
CCc1cccc(C(C)CC)c1NC(=O)C(=O)C(CC(=O)Nc1ccc(Cl)c(Cl)c1)C(=O)OC (stereo unspecified)	63.1 µM (inactive)	> 100 µM (inactive)	> 100 µM (inactive)	93.3 µM (inactive)	> 100 µM (inactive)	71.1 µM (inactive)	> 100 µM (inactive)	9.79 µM (inactive)	71.3 µM (inactive)	38.5 µM (inactive)	> 100 µM (inactive)	64 µM (inactive)	30.4 µM (inactive)	> 100 µM (inactive)		> 100 µM (inactive)	> 100 µM (inactive)	73.1 µM (inactive)	3.59 µM (inactive)
Cc1nc(NC(=S)NC(=O)c2ccc(Cl)c(Cl)c2)sc1C(=O)/C=C/c1ccccc1[N+](=O)[O-]	25.3 µM (inactive)	22.4 µM (inactive)	18.4 µM (inactive)	33.3 µM (inactive)	19.1 µM (inactive)	21.2 µM (inactive)	24.5 µM (inactive)	18.2 µM (inactive)	19.8 µM (inactive)	16.9 µM (inactive)	26.8 µM (inactive)	39.4 µM (inactive)	24.2 µM (inactive)	18.4 µM (inactive)		21.6 µM (inactive)	30.1 µM (inactive)	20.8 µM (inactive)	10.9 µM (inactive)

From ChEMBL document CHEMBL1201862, “PubChem BioAssay data set” (2004)
